Measurements: PubChem BioAssay (NCI)
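Cells were grown in 96-well plates and exposed to each compound for 48 hours at five concentrations; endpoints were interpolated linearly between bracketing concentrations, or set to the highest concentration if not reached. GI50 = concentration required for 50% inhibition of growth. At the TGI there is no net growth.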

Assays:
Test in all cases: NCI anticancer screen, dose series, 48 h
[1] = system: A549 NSCLC
[2] = system: HCT-116 colon
[3] = system: HT29 colon
[4] = system: NCI/ADR-RES ovarian
[5] = system: OVCAR-4 ovarian
[6] = system: PC-3 prostate
[7] = system: SF-539 CNS
[8] = system: SK-MEL-2 melanoma
[9] = system: SK-MEL-5 melanoma
[10] = system: U251 CNS

Row | SMILES | GI50 [1] [µM] | TGI [1] [µM] | GI50 [2] [µM] | TGI [2] [µM] | GI50 [3] [µM] | TGI [3] [µM] | GI50 [4] [µM] | TGI [4] [µM] | GI50 [5] [µM] | TGI [5] [µM] | GI50 [6] [µM] | TGI [6] [µM] | GI50 [7] [µM] | TGI [7] [µM] | GI50 [8] [µM] | TGI [8] [µM] | GI50 [9] [µM] | TGI [9] [µM] | GI50 [10] [µM] | TGI [10] [µM]
1 | C=C1C(=O)O[C@H]2[C@H]1CC/C(Cn1cc(-c3ccsc3)nn1)=C\CC[C@@]1(C)O[C@@H]21 | 8.61 | 23.1 | 1.16 | 2.76 | 1.66 | 3.64 | 3.79 | 16.9 | 2.48 | 7.61 | 4.21 | 14.9 | 1.8 | 3.47 | 2.27 | 5.34 | 1.83 | 3.88 | 2.5 | 8
2 | O=C(O)CNC(=O)C1NC(C(F)(F)F)(C(F)(F)F)OC1(C(F)(F)F)C(F)(F)F (stereo not given) | – | > 100 | – | > 100 | – | > 100 | – | > 100 | – | > 100 | – | > 100 | – | > 100 | – | > 100 | – | > 100 | – | > 100
3 | Cc1ccc2c(c1)-c1oc(=O)c(-c3cc4ccccc4oc3=O)cc1C(O)O2 (stereo not given) | 29.9 | > 100 | 18 | 33 | 40.8 | > 100 | 23.2 | 52.3 | 36.3 | > 100 | 45.2 | > 100 | 13.3 | 26 | 16.9 | 42.1 | 19.1 | 33.2 | 13.2 | 26.6
4 | COc1c(N2CCN(CN3C(=O)C(=O)c4ccccc43)C(C)C2)c(F)cc2c(=O)c(C(=O)O)cn(C3CC3)c12 (stereo not given) | > 100 | > 100 | 44.9 | > 100 | 47.3 | > 100 | > 100 | > 100 | > 100 | > 100 | > 100 | > 100 | > 100 | > 100 | > 100 | > 100 | 35.3 | > 100 | > 100 | > 100
5 | O=C1CCC(N2C(=O)c3cccc(NCCOCCOCCNC(=O)c4cc5c(o4)C(=O)c4ccccc4C5=O)c3C2=O)C(=O)N1 (stereo not given) | 2.18 | 4.91 | 2.32 | 6.9 | 3.35 | > 100 | 17.1 | 62.1 | 1.29 | 2.57 | 2.42 | 15.1 | 1.62 | 2.99 | 2.36 | 6.46 | 0.787 | 2.07 | 1.72 | 3.25
6 | COc1ccc(-c2cc(-c3ccc(Cl)cc3)nc(SCCCCCCC(=O)NO)n2)cc1 | 1.62 | 10.7 | 1.35 | 7.16 | 1.71 | 16.6 | 0.876 | 3.83 | 2.05 | 43.1 | 1.69 | 12.7 | 1.63 | 6.44 | 5.73 | > 50 | 1.14 | 2.52 | 1.37 | 5.9
